Values quoted from earlier work in US20100323983A1, “PHARMACEUTICAL OR COSMETIC PREPARATIONS FOR TOPICAL AND/OR PARENTERAL APPLICATION, PREPARATION METHODS THEREOF, AND USES THEREOF” (priority 2007, published 2010).

Details: humans

excretion in the urine: less than 1 % of total clearance
Substance: hyaluronic acid
